Data published in ChEMBL document CHEMBL1126385, “-alkoxyphenol leukotriene B4 receptor antagonists” (Bioorg Med Chem Lett, 1992).

Tested on: Cavia porcellus
Assay: Effective dose for inhibition of gas trapping in vivo in a guinea pig model of LTB4-induced airway obstruction
Format: functional

SMILES: CCOc1cc(CC)c(OCCCCCC(C)(C)c2nn[n-]n2)cc1O.[Na+]
- ED50: 0.3 mg/kg
